For orientation: half-life means how long it takes for the measured level to halve. Broadly, the EC50 is the concentration giving half of the maximal effect. In general, solubility refers to the dissolved amount per volume that the medium holds.

In brackets after ≈: the same amount, converted by molar mass. Where two headings read alike, the source gives them in different places. Starred links: 1 amine or outer side, 2 acyl side, 3 side chain; linkers in the order of their positions; H or OH if unused. Positions of bridges follow the written chain, without caps; N, C: chain ends. Residues, ends and D or L forms follow the SMILES beside them. *: point of attachment. C20 diacid = O=C(O)CCCCCCCCCCCCCCCCCCC(=O)*; γGlu = O=C(O)[C@H](CCC(=O)[*:2])N[*:1] Where only a bound is given, the exact number is not on record here.

In series [1] the target is T1, amylin receptor (Homo sapiens, UniProt P30988).
T1 sequence (P30988 25-474): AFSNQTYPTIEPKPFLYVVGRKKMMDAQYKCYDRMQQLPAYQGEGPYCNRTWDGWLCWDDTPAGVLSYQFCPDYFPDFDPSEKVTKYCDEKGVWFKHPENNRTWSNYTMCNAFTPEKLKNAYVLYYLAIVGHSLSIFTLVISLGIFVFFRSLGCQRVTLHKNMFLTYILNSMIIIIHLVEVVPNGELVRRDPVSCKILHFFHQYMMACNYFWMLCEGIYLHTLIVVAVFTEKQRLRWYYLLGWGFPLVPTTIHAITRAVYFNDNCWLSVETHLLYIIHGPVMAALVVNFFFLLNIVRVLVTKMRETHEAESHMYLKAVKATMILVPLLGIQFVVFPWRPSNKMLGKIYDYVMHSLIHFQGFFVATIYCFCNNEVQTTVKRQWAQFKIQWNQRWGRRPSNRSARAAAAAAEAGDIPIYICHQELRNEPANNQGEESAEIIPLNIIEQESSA
As to conditions: amylin receptor vs calcitonin receptor, cited from earlier work.

The conditions of series [2]: cited from earlier work.
Series [3] can be described thus: Assay (IX) pK, determination of T½ in mini-pig. It is filed as in vivo, Göttingen mini-pigs. The conditions noted are these: male, Göttingen, iv, 2 nmol/kg; minipig; plasma terminal half-life.
Series [4] deals with T2, human amylin receptor (amylin 3(a) receptor: human calcitonin receptor + RAMP-3) (Homo sapiens, UniProt O60896+P30988).
T2 construct: expressed in transfected cells; host or cells: BHK570
T2 sequence (P30988 25-474): T1 sequence (P30988 25-474)
T2 sequence (O60896 24-148 partner): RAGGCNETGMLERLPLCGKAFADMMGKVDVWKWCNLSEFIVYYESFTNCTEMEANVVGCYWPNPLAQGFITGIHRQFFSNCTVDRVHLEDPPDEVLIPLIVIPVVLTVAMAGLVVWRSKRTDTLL
Put plainly: Assay (II)a functional CRE-luciferase assay, human amylin receptor. It is filed as cell-based. As to conditions: Table 2; BHK amylin 3(a)-receptor/CRE-luc cells.

For series [5], the target named is T3, human calcitonin receptor (Homo sapiens, UniProt P30988).
T3 construct: expressed in transfected cells; host or cells: BHK570
T3 sequence (P30988 25-474): T1 sequence (P30988 25-474)
As to the kind of experiment: Assay (II)a functional CRE-luciferase assay, human calcitonin receptor. It is filed as cell-based. The conditions noted are these: Table 7; human calcitonin (CTa) receptor.

Series [6] in a line: Assay (IV) determination of solubility. It is filed as physicochemical. In a few lines: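 Polypeptide in water (~500 nmol/ml) mixed 1:1 with 100 mM glycylglycine (pH 3.0–5.0) or bistrispropane (pH 6.0–8.0) buffers. Held 18 hours at room temperature, then centrifuged. Polypeptide remaining in solution quantified by HPLC.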
Series [7] has as its target T4, rat amylin 3(a) receptor (rat calcitonin(a) receptor + rat RAMP3) (Rattus norvegicus, UniProt P32214+Q9JJ73).
T4 construct: expressed in transfected cells; host or cells: BHK tk'ts 13
T4 sequence (P32214 25-479 isoform P32214-2 limits assumed): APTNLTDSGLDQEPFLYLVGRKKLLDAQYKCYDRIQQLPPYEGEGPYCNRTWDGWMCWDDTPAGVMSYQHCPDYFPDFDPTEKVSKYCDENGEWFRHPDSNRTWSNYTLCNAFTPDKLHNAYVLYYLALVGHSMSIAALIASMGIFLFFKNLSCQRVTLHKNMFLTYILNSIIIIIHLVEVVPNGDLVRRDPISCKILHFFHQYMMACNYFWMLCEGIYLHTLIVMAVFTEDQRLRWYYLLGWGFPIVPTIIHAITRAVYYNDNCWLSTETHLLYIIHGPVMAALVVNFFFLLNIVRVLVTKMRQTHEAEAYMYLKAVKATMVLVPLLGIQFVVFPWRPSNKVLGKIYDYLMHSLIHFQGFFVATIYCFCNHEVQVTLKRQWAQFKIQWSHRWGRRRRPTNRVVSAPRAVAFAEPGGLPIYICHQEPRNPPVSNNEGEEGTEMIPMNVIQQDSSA
T4 sequence (Q9JJ73 23-147 partner): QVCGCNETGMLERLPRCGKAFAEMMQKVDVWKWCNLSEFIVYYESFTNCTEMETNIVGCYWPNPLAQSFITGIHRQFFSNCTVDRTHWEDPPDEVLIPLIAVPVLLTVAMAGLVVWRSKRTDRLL
Put plainly: Assay (II)b functional cAMP FlashPlate assay, rat amylin receptor. The format is cell-based. The conditions noted are these: Table 11. In short, it runs like this: (§1)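 BHK tk'ts 13 cells transiently transfected with rat calcitonin(a) receptor, alone or with rat RAMP3 (amylin 3(a)), were stimulated 24 hours later with sample for 30 min in buffer containing IBMX. cAMP measured by competitive radioactive FlashPlate assay, scintillation read after 3 h detection incubation.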

The target of series [8] is T5, rat calcitonin (a) receptor (Rattus norvegicus, UniProt P32214).
T5 construct: expressed in transfected cells; host or cells: BHK tk'ts 13
T5 sequence (P32214 25-479 isoform P32214-2 limits assumed): T4 sequence (P32214 25-479 isoform P32214-2 limits assumed)
Put plainly: Assay (II)b functional cAMP FlashPlate assay, rat calcitonin receptor. The format is cell-based. As to conditions: Table 11; read-out: CTa receptor rat EC50. In a few lines: as §1

On to pramlintide, for which the “potency on the amylin receptor relative to the calcitonin receptor” value is 14 times in series [1] and “approximately 14 times” in series [1] (listed as Pramlintide).
For the molecule salmon calcitonin, the plasma half-life result in series [2] is “about 45 minutes”.
Consider `CC[C@H](C)[C@H](NC(=O)[C@@H]1CCCN1C(=O)CNC(=O)[C@H](Cc1ccccc1)NC(=O)[C@H](CC(N)=O)NC(=O)[C@H](CC(N)=O)NC(=O)[C@H](CO)NC(=O)[C@H](CO)NC(=O)[C@H](Cc1c[nH]cn1)NC(=O)[C@H](Cc1cnc[nH]1)NC(=O)[C@H](CC(C)C)NC(=O)[C@H](Cc1ccccc1)NC(=O)[C@H](CCC(=O)O)NC(=O)[C@H](C)NC(=O)[C@H](CC(C)C)NC(=O)[C@H](CCCNC(=N)N)NC(=O)[C@H](CCC(N)=O)NC(=O)[C@@H](NC(=O)[C@H](C)NC(=O)[C@@H]1CSSC[C@H](NC(=O)[C@H](CCCCN)NC(=O)CC[C@H](NC(=O)CCCCCCCCCCCCCCCCCCC(=O)O)C(=O)O)C(=O)N[C@@H](CC(N)=O)C(=O)N[C@@H]([C@@H](C)O)C(=O)N[C@@H](C)C(=O)N[C@@H]([C@@H](C)O)C(=O)N1)[C@@H](C)O)C(=O)N[C@@H](CC(C)C)C(=O)N1CCC[C@H]1C(=O)N1CCC[C@H]1C(=O)N[C@H](C(=O)N[C@@H](CC(N)=O)C(=O)N[C@H](C(=O)NCC(=O)N[C@@H](CO)C(=O)N[C@@H](Cc1cnc[nH]1)C(=O)N[C@H](C(=O)N[C@@H](Cc1ccc(O)cc1)C(N)=O)[C@@H](C)O)C(C)C)[C@@H](C)O` [Example 55, N-alpha-[(S)-4-Carboxy-4-(19-carboxynonadecanoylamino)butyryl]-[Glu14,His17,His35]-pramlintide] ({C20 diacid-γGlu}-KCNTATCATQRLAEFLHHSSNNFGPILPPTNVGSHTY-NH2; disulfide 2-7), for which the half-life in series [3] was 73 h. For the same molecule, the EC50 in series [4] was determined as 0.152 nM; in series [5], 0.163 nM; in series [7] it was 0.262 nM; in series [8], 0.673 nM. Moreover, the solubility at 18 h in series [6] (bistrispropane buffer, pH 6, pH 6.0, read-out: Solubility pH 6.0) is greater than 200 µM; in series [6] (bistrispropane buffer, pH 6.5, pH 6.5, read-out: Solubility pH 6.5) it was 146 µM (≈ 654 µg/mL); in series [6] (bistrispropane buffer, pH 7, pH 7.0, 18 hours at room temperature, Table 3, read-out: Solubility pH 7.0) it was 102 µM (≈ 459 µg/mL); in series [6] (bistrispropane buffer, pH 7, pH 7.0, read-out: Solubility pH 7.0) it was 102 µM (≈ 459 µg/mL); in series [6] (bistrispropane buffer, pH 7.5, pH 7.5, read-out: Solubility pH 7.5), 108 µM (≈ 486 µg/mL); in series [6] (bistrispropane buffer, pH 8, pH 8.0, read-out: Solubility pH 8.0), 146 µM (≈ 654 µg/mL). Besides, the solubility at 18 h in series [6] (glycylglycine buffer, pH 3, pH 3.0, read-out: Solubility pH 3.0) was greater than 200 µM; in series [6] (glycylglycine buffer, pH 4, pH 4.0, 18 hours at room temperature, Table 2, read-out: Solubility pH 4.0), greater than 200 µM; in series [6] (glycylglycine buffer, pH 4, pH 4.0, read-out: Solubility pH 4.0), greater than 200 µM; in series [6] (glycylglycine buffer, pH 5, pH 5.0, read-out: Solubility pH 5.0), greater than 200 µM.

These data come from patent US8722849B2, “Polypeptides” (Novo Nordisk A/S, priority 2011, dated 2014).
